# In BigSolDB 2.1:
compound,measurement,setting,value
CCOC(=O)CCC(=O)O[C@H]1[C@H](O[C@@H]2[C@@H](C)[C@H](O[C@H]3C[C@@](C)(OC)[C@@H](O)[C@H](C)O3)[C@@H](C)C(=O)O[C@H](CC)[C@@](C)(O)[C@H](O)[C@@H](C)C(=O)[C@H](C)C[C@@]2(C)O)O[C@H](C)C[C@@H]1N(C)C,solubility (mole fraction),"in THF, 288.15 K",0.036
same,solubility (mole fraction),"in THF, 293.15 K",0.0416
same,solubility (mole fraction),"in THF, 298.15 K",0.0491
same,solubility (mole fraction),"in THF, 303.15 K",0.058
same,solubility (mole fraction),"in THF, 308.15 K",0.0684
same,solubility (mole fraction),"in THF, 313.15 K",0.081
same,solubility (mole fraction),"in THF, 318.15 K",0.0977
same,solubility (mole fraction),"in THF, 323.15 K",0.114
same,solubility (mole fraction),"in acetone, 288.15 K",0.0138
same,solubility (mole fraction),"in acetone, 293.15 K",0.0175
same,solubility (mole fraction),"in acetone, 298.15 K",0.0219
same,solubility (mole fraction),"in acetone, 303.15 K",0.0268
same,solubility (mole fraction),"in acetone, 308.15 K",0.0347
same,solubility (mole fraction),"in acetone, 313.15 K",0.0425
same,solubility (mole fraction),"in acetone, 318.15 K",0.0527
same,solubility (mole fraction),"in acetone, 323.15 K",0.0614
same,solubility (mole fraction),"in acetonitrile, 288.15 K",0.0019
same,solubility (mole fraction),"in acetonitrile, 293.15 K",0.00252
same,solubility (mole fraction),"in acetonitrile, 298.15 K",0.00332
same,solubility (mole fraction),"in acetonitrile, 303.15 K",0.00397
same,solubility (mole fraction),"in acetonitrile, 308.15 K",0.00504
same,solubility (mole fraction),"in acetonitrile, 313.15 K",0.00703
same,solubility (mole fraction),"in acetonitrile, 318.15 K",0.00906
same,solubility (mole fraction),"in acetonitrile, 323.15 K",0.0114
same,solubility (mole fraction),"in ethanol, 288.15 K",0.00762
same,solubility (mole fraction),"in ethanol, 293.15 K",0.00966
same,solubility (mole fraction),"in ethanol, 298.15 K",0.0128
same,solubility (mole fraction),"in ethanol, 303.15 K",0.017
same,solubility (mole fraction),"in ethanol, 308.15 K",0.0242
same,solubility (mole fraction),"in ethanol, 313.15 K",0.0323
same,solubility (mole fraction),"in ethanol, 318.15 K",0.0414
same,solubility (mole fraction),"in ethanol, 323.15 K",0.0518
same,solubility (mole fraction),"in isopropanol, 288.15 K",0.00814
same,solubility (mole fraction),"in isopropanol, 293.15 K",0.0106
same,solubility (mole fraction),"in isopropanol, 298.15 K",0.0141
same,solubility (mole fraction),"in isopropanol, 303.15 K",0.0187
same,solubility (mole fraction),"in isopropanol, 308.15 K",0.0249
same,solubility (mole fraction),"in isopropanol, 313.15 K",0.0342
same,solubility (mole fraction),"in isopropanol, 318.15 K",0.0459
same,solubility (mole fraction),"in isopropanol, 323.15 K",0.0556
same,solubility (mole fraction),"in n-hexane, 288.15 K",9.26e-05
same,solubility (mole fraction),"in n-hexane, 293.15 K",0.000129
same,solubility (mole fraction),"in n-hexane, 298.15 K",0.000158
same,solubility (mole fraction),"in n-hexane, 303.15 K",0.000213
same,solubility (mole fraction),"in n-hexane, 308.15 K",0.000286
same,solubility (mole fraction),"in n-hexane, 313.15 K",0.000371
same,solubility (mole fraction),"in n-hexane, 318.15 K",0.000562
same,solubility (mole fraction),"in n-hexane, 323.15 K",0.000698
